# Columns and labels:
# Format in all cases: functional
# [1] = Cytotoxicity against human 786-O cells after 48 hrs by SRB assay; conditions: 786-0, 48 h
# A549 [2] = assay: Cytotoxicity against human A549 cells after 72 hrs by MTT assay; conditions: A549, 72 h
# COLO 205 [3] = assay: Cytotoxicity against human COLO205 cells after 48 hrs by SRB assay; conditions: COLO 205, 48 h
# BXPC-3 = assay: Cytotoxicity against human BxPC3 cells after 72 hrs by MTT assay; conditions: BXPC-3, 72 h
# A549 [4] = assay: Cytotoxicity against human A549 cells after 48 hrs by SRB assay; conditions: A549, 48 h
# COLO 205 [5] = assay: Cytotoxicity against human COLO205 cells after 72 hrs by MTT assay; conditions: COLO 205, 72 h
# MDA-MB-231 = assay: Cytotoxicity against human MDA-MB-231 cells after 48 hrs by SRB assay; conditions: MDA-MB-231, 48 h
# IGROV-1 = assay: Cytotoxicity against human IGROV1 cells after 48 hrs by SRB assay; conditions: IGROV-1, 48 h
# OVCAR-8 = assay: Cytotoxicity against human OVCAR8 cells after 48 hrs by SRB assay; conditions: OVCAR-8, 48 h
# SK-MEL-5 = assay: Cytotoxicity against human SK-MEL-5 cells after 48 hrs by SRB assay; conditions: SK-MEL-5, 48 h
# SF-295 = assay: Cytotoxicity against human SF295 cells after 48 hrs by SRB assay; conditions: SF-295, 48 h
# U-251 = assay: Cytotoxicity against human U251 cells after 48 hrs by SRB assay; conditions: U-251, 48 h
# UO-31 = assay: Cytotoxicity against human UO31 cells after 48 hrs by SRB assay; conditions: UO-31, 48 h
# SNB-75 = assay: Cytotoxicity against human SNB75 cells after 48 hrs by SRB assay; conditions: SNB-75, 48 h
# KM12 = assay: Cytotoxicity against human KM12 cells after 48 hrs by SRB assay; conditions: KM12, 48 h
# DU-145 = assay: Cytotoxicity against human DU145 cells after 48 hrs by SRB assay; conditions: DU-145, 48 h
# HT-29 = assay: Cytotoxicity against human HT-29 cells after 48 hrs by SRB assay; conditions: HT-29, 48 h
# SN12C = assay: Cytotoxicity against human SN12C cells after 48 hrs by SRB assay
# NCI-H460 = assay: Cytotoxicity against human NCI-H460 cells after 48 hrs by SRB assay; conditions: NCI-H460, 48 h
# HL-60 = assay: Cytotoxicity against human HL60 cells after 48 hrs by SRB assay; conditions: HL-60, 48 h
# HOP-92 = assay: Cytotoxicity against human HOP92 cells after 48 hrs by SRB assay; conditions: HOP-92, 48 h
# NCI-H226 = assay: Cytotoxicity against human NCI-H226 cells after 48 hrs by SRB assay; conditions: NCI-H226, 48 h
# HCC 2998 = assay: Cytotoxicity against human HCC2998 cells after 48 hrs by SRB assay; conditions: HCC 2998, 48 h
# PC-3 = assay: Cytotoxicity against human PC3 cells after 48 hrs by SRB assay; conditions: PC-3, 48 h
# M14 = assay: Cytotoxicity against human M14 cells after 48 hrs by SRB assay; conditions: M14, 48 h
# TK-10 = assay: Cytotoxicity against human TK10 cells after 48 hrs by SRB assay; conditions: TK-10, 48 h
# SNB-19 = assay: Cytotoxicity against human SNB19 cells after 48 hrs by SRB assay; conditions: SNB-19, 48 h
# NCI-H23 = assay: Cytotoxicity against human NCI-H23 cells after 48 hrs by SRB assay; conditions: NCI-H23, 48 h
# Hs-578T = assay: Cytotoxicity against human Hs578T cells after 48 hrs by SRB assay
# SR = assay: Cytotoxicity against human SR cells after 48 hrs by SRB assay
# SK-MEL-2 = assay: Cytotoxicity against human SK-MEL-2 cells after 48 hrs by SRB assay; conditions: SK-MEL-2, 48 h
# RXF 393 = assay: Cytotoxicity against human RXF393 cells after 48 hrs by SRB assay; conditions: RXF 393, 48 h
# SF-539 = assay: Cytotoxicity against human SF539 cells after 48 hrs by SRB assay; conditions: SF-539, 48 h
# A498 = assay: Cytotoxicity against human A498 cells after 48 hrs by SRB assay; conditions: A498, 48 h
# EKVX = assay: Cytotoxicity against human EKVX cells after 48 hrs by SRB assay
# HOP-62 = assay: Cytotoxicity against human HOP62 cells after 48 hrs by SRB assay; conditions: HOP-62, 48 h
# SK-OV-3 = assay: Cytotoxicity against human SKOV3 cells after 48 hrs by SRB assay; conditions: SK-OV-3, 48 h
# CAKI-1 = assay: Cytotoxicity against human Caki1 cells after 48 hrs by SRB assay; conditions: CAKI-1, 48 h
# SK-MEL-28 = assay: Cytotoxicity against human SK-MEL-28 cells after 48 hrs by SRB assay; conditions: SK-MEL-28, 48 h
# MOLT-4 = assay: Cytotoxicity against human MOLT4 cells after 48 hrs by SRB assay; conditions: MOLT-4, 48 h
# Malme-3M = assay: Cytotoxicity against human MALME-3M cells after 48 hrs by SRB assay
# OVCAR-5 = assay: Cytotoxicity against human OVCAR5 cells after 48 hrs by SRB assay; conditions: OVCAR-5, 48 h
# UACC-257 = assay: Cytotoxicity against human UACC257 cells after 48 hrs by SRB assay; conditions: UACC-257, 48 h
# HCT-15 = assay: Cytotoxicity against human HCT15 cells after 48 hrs by SRB assay; conditions: HCT-15, 48 h
# MCF7 = assay: Cytotoxicity against human MCF7 cells after 48 hrs by SRB assay; conditions: MCF7, 48 h
# RPMI-8226 = assay: Cytotoxicity against human RPMI8226 cells after 48 hrs by SRB assay; conditions: RPMI-8226, 48 h
# OVCAR-3 = assay: Cytotoxicity against human OVCAR3 cells after 48 hrs by SRB assay; conditions: OVCAR-3, 48 h
# SW-620 = assay: Cytotoxicity against human SW620 cells after 48 hrs by SRB assay; conditions: SW-620, 48 h
# HCT-116 = assay: Cytotoxicity against human HCT116 cells after 48 hrs by SRB assay; conditions: HCT-116, 48 h
# MDA-MB-468 = assay: Cytotoxicity against human MDA-MB-468 cells after 48 hrs by SRB assay; conditions: MDA-MB-468, 48 h
# [6] = Cytotoxicity against human NCI-ADR-RES cells after 48 hrs by SRB assay
# T47D = assay: Cytotoxicity against human T47D cells after 48 hrs by SRB assay
# MDA-MB-435 = assay: Cytotoxicity against human MDA-MB-435 cells after 48 hrs by SRB assay; conditions: MDA-MB-435, 48 h
# OVCAR-4 = assay: Cytotoxicity against human OVCAR4 cells after 48 hrs by SRB assay; conditions: OVCAR-4, 48 h
# UACC-62 = assay: Cytotoxicity against human UACC62 cells after 48 hrs by SRB assay; conditions: UACC-62, 48 h
# CCRF-CEM = assay: Cytotoxicity against human CCRF-CEM cells after 48 hrs by SRB assay
# ACHN = assay: Cytotoxicity against human ACHN cells after 48 hrs by SRB assay
# LOX IMVI = assay: Cytotoxicity against human LOXIMVI cells after 48 hrs by SRB assay
# NCI-H522 = assay: Cytotoxicity against human NCI-H522 cells after 48 hrs by SRB assay; conditions: NCI-H522, 48 h
# SF-268 = assay: Cytotoxicity against human SF268 cells after 48 hrs by SRB assay; conditions: SF-268, 48 h
# K562 = assay: Cytotoxicity against human K562 cells after 48 hrs by SRB assay; conditions: K562, 48 h
# BT-549 = assay: Cytotoxicity against human BT549 cells after 48 hrs by SRB assay; conditions: BT-549, 48 h
compound,measurement,setting,value
CO[C@H](C(=O)C(C)=O)[C@@H]1Cc2cc3cc(O[C@H]4C[C@@H](O[C@H]5C[C@@H](O)[C@H](O)[C@@H](C)O5)[C@H](O)[C@@H](C)O4)c(C)c(O)c3c(O)c2C(=O)[C@H]1O[C@H]1C[C@@H](O[C@H]2C[C@@H](O)[C@H](O)[C@@H](C)O2)[C@H](O)[C@@H](C)O1,GI50,[1],166 nM
same,GI50,A549 [2],300 nM
same,GI50,COLO 205 [3]; read-out: pGI50 (converted),83.2 nM
same,GI50,BXPC-3,300 nM
same,GI50,A549 [4]; read-out: pGI50 (converted),170 nM
same,GI50,COLO 205 [5],300 nM
same,GI50,MDA-MB-231; read-out: pGI50 (converted),240 nM
CO[C@H](C(=O)[C@@H](O)[C@@H](C)O)[C@@H]1Cc2cc3cc(O[C@H]4C[C@@H](O[C@@H]5C[C@@H](O)[C@H](O)[C@@H](C)O5)[C@H](O)[C@@H](C)O4)c(C)c(O)c3c(O)c2C(=O)[C@H]1O[C@H]1C[C@@H](O[C@@H]2C[C@@H](O)[C@@H](O[C@@H]3C[C@](C)(O)[C@H](O)[C@@H](C)O3)[C@@H](C)O2)[C@H](O)[C@@H](C)O1 [PLICAMYCIN],GI50,IGROV-1; read-out: GI50,158 nM
same,GI50,OVCAR-8; read-out: GI50,79 nM
same,GI50,SK-MEL-5; read-out: GI50,63 nM
same,GI50,COLO 205 [3]; read-out: GI50,63 nM
same,GI50,SF-295; read-out: GI50,79 nM
same,GI50,A549 [4]; read-out: GI50,79 nM
same,GI50,MDA-MB-231; read-out: GI50,166 nM
same,GI50,U-251; read-out: GI50,63 nM
CO[C@H](C(=O)[C@@H](O)[C@@H](C)O)[C@@H]1Cc2cc3cc(O[C@H]4C[C@@H](O[C@H]5C[C@@H](O)[C@H](O)[C@@H](C)O5)[C@H](O)[C@@H](C)O4)c(C)c(O)c3c(O)c2C(=O)[C@H]1O[C@H]1C[C@@H](O[C@H]2C[C@@H](O[C@H]3C[C@H](O)[C@H](O)[C@@H](C)O3)[C@H](O)[C@@H](C)O2)[C@H](O)[C@@H](C)O1,GI50,[1],61.7 nM
same,GI50,UO-31,166 nM
same,GI50,IGROV-1; read-out: pGI50 (converted),75.9 nM
same,GI50,OVCAR-8; read-out: pGI50 (converted),53.7 nM
same,GI50,SNB-75,30.2 nM
same,GI50,KM12,29.5 nM
same,GI50,DU-145,91.2 nM
same,GI50,HT-29,75.9 nM
same,GI50,SK-MEL-5; read-out: pGI50 (converted),27.5 nM
same,GI50,COLO 205 [3]; read-out: pGI50 (converted),49 nM
same,GI50,SN12C,35.5 nM
same,GI50,NCI-H460,21.4 nM
same,GI50,HL-60,53.7 nM
same,GI50,HOP-92,30.2 nM
same,GI50,NCI-H226,45.7 nM
same,GI50,HCC 2998,61.7 nM
same,GI50,PC-3,100 nM
same,GI50,M14,100 nM
same,GI50,TK-10,129 nM
same,GI50,SNB-19,43.6 nM
same,GI50,NCI-H23,41.7 nM
same,GI50,Hs-578T,28.2 nM
same,GI50,SR,14.1 nM
same,GI50,SK-MEL-2,33.9 nM
same,GI50,RXF 393,25.7 nM
same,GI50,SF-295; read-out: pGI50 (converted),39.8 nM
same,GI50,SF-539,33.1 nM
same,GI50,A549 [4]; read-out: pGI50 (converted),41.7 nM
same,GI50,A498,32.4 nM
same,GI50,EKVX,135 nM
same,GI50,HOP-62,56.2 nM
same,GI50,SK-OV-3,102 nM
same,GI50,CAKI-1,229 nM
same,GI50,SK-MEL-28,27.5 nM
same,GI50,MOLT-4,47.9 nM
same,GI50,Malme-3M,24 nM
same,GI50,OVCAR-5,79.4 nM
same,GI50,UACC-257,69.2 nM
same,GI50,HCT-15,1050 nM
same,GI50,MCF7,12.9 nM
same,GI50,RPMI-8226,11.8 nM
same,GI50,OVCAR-3,69.2 nM
same,GI50,MDA-MB-231; read-out: pGI50 (converted),132 nM
same,GI50,SW-620,29.5 nM
same,GI50,HCT-116,19.5 nM
same,GI50,MDA-MB-468,50.1 nM
same,GI50,[6],7760 nM
same,GI50,T47D,44.7 nM
same,GI50,MDA-MB-435,42.7 nM
same,GI50,OVCAR-4,209 nM
same,GI50,UACC-62,12.3 nM
same,GI50,CCRF-CEM,28.2 nM
same,GI50,ACHN,155 nM
same,GI50,LOX IMVI,20.4 nM
same,GI50,U-251; read-out: pGI50 (converted),23.4 nM
same,GI50,NCI-H522,14.1 nM
same,GI50,SF-268,30.9 nM
same,GI50,K562,24.6 nM
same,GI50,BT-549,17 nM

# From ChEMBL document CHEMBL2150933 (J Med Chem, 2012)
